Measurements from US10077272B2, “Heteroaromatic compounds and their use as dopamine D1 ligands” (PFIZER INC., priority 2014, dated 2018).
Structures can show the parent of a compound that is named as a salt.

molecular target: Human D1 Receptor (Homo sapiens (Human), UniProt P21728); assay: Human D1 Receptor Binding Assay ([3H]-SCH23390 competition); details: competition with 0.5 nM [3H]-SCH23390, over-expressing LTK human cell lines, 30 min at 37° C.; values marked ^a are from a single determination; read-out: Human D1 Receptor Binding, Ki (nM); Geometric mean of 2-4 determinations (unless otherwise indicated)
Sequence (P21728 whole entry): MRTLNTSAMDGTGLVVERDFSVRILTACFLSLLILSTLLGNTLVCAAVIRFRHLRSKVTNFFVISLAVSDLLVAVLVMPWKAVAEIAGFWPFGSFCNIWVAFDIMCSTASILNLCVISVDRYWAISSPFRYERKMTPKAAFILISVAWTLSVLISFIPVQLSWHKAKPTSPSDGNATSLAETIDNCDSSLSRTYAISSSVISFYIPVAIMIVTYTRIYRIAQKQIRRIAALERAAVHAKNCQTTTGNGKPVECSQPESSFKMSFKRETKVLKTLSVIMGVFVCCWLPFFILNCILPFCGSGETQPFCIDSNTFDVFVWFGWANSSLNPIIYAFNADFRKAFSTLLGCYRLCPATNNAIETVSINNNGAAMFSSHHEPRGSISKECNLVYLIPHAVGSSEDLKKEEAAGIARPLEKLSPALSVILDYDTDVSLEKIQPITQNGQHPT
Procedure: D1 binding assays were performed using over-expressing LTK human cell lines. […] These ligand and tissue concentrations were used in time course studies to determine linearity and equilibrium conditions for binding. […] The pellet was resuspended in assay buffer [50 mM Tris (pH 7.4@ RT) containing 4 mM MgSO4 and 0.5 mM EDTA]. […] Non-specific binding was determined by radioligand binding in the presence of a saturating concentration of (+)-Butaclamol (10 μM), a D1 antagonist. After a 30 minute incubation period at 37° C., assay samples were rapidly filtered through Unifilter-96 GF/B PEI-coated filter plates and rinsed with 50 mM Tris buffer (pH 7.4 at 4° C.). […] Ki values were calculated according to the Cheng-Prusoff equation: […]

Q: With `CCn1c(-c2ccc(Oc3ncnc4occc34)cc2)c(C)c(=O)[nH]c1=O` [Example 20, 1-ethyl-6-[4-(furo[2,3-d]pyrimidin-4-yloxy)phenyl]-5-methylpyrimidine-2,4(1H,3H)-dione] as the compound, how does the Ki read?
A: Its Ki is 179 nM.

Q: For `COCCn1c(-c2ccc(Oc3ncnc4occc34)cc2)c(C)c(=O)[nH]c1=O` [Example 19, 6-[4-(furo[2,3-d]pyrimidin-4-yloxy)phenyl]-1-(2-methoxyethyl)-5-methylpyrimidine-2,4(1H,3H)-dione], which Ki is on record?
A: Its Ki is 900 nM.

Q: For `Cc1cc(Oc2ncnc3occc23)ccc1-c1c(C)ncc(=O)n1C` [Example 3, 6-[4-(furo[2,3-d]pyrimidin-4-yloxy)-2-methylphenyl]-1,5-dimethylpyrazin-2(1H)-one], which Ki is on record?
A: The Ki was 196 nM.

Q: Which Ki does the source give for `Cc1c(-c2ccc(Oc3nccc4onc(C)c34)cc2)n(C)c(=O)[nH]c1=O` [Example 15, 1,5-dimethyl-6-{4-[(3-methyl[1,2]oxazolo[4,5-c]pyridin-4-yl)oxy]phenyl}pyrimidine-2,4(1H,3H)-dione] here?
A: The Ki was 280 nM.

Q: How did the Ki turn out when `Cc1cc(Oc2ncnc3occc23)ccc1-c1c(C)n[nH]c(=O)c1C` (single isomer, unassigned) [Example 8, (−)-5-[4-(furo[2,3-d]pyrimidin-4-yloxy)-2-methylphenyl]-4,6-dimethylpyridazin-3(2H)-one] was run?
A: Its Ki is 40.2 nM.

Q: With `Cc1cc(Oc2ncnc3occc23)ccc1-c1c(C)n[nH]c(=O)c1C` [Example 6, 5-[4-(furo[2,3-d]pyrimidin-4-yloxy)-2-methylphenyl]-4,6-dimethylpyridazin-3(2H)-one] as the compound, how does the Ki read?
A: Its Ki is 44.7 nM.

Q: Which Ki does the source give for `Cc1c(-c2ccc(Oc3ncnc4occc34)cc2)n(C2CC2)c(=O)[nH]c1=O` [Example 21, 1-cyclopropyl-6-[4-(furo[2,3-d]pyrimidin-4-yloxy)phenyl]-5-methylpyrimidine-2,4(1H,3H)-dione] here?
A: The Ki was 122 nM.

Q: With `Cc1n[nH]c(=O)c(C)c1-c1ccc(Oc2ncnc3occc23)cc1` [Example 13, 5-[4-(furo[2,3-d]pyrimidin-4-yloxy)phenyl]-4,6-dimethylpyridazin-3(2H)-one] as the compound, how does the Ki read?
A: The Ki was 70.3 nM.

Q: `Cc1c(-c2ccc(Oc3ncnc4occc34)cc2)n(C)c(=O)[nH]c1=O` [Example 9, 6-[4-(furo[2,3-d]pyrimidin-4-yloxy)phenyl]-1,5-dimethylpyrimidine-2,4(1H,3H)-dione] was tested. Which Ki did it give?
A: The Ki was 142 nM.

Q: For `CCc1c(-c2ccc(Oc3ncnc4occc34)cc2)n(CC)c(=O)[nH]c1=O` [Example 23, 1,5-diethyl-6-[4-(furo[2,3-d]pyrimidin-4-yloxy)phenyl]pyrimidine-2,4(1H,3H)-dione], which Ki is on record?
A: The Ki was 309 nM.

Q: `Cc1cc(Oc2nccc3onc(C)c23)ccc1-c1c(C)n[nH]c(=O)c1C` [Example 16, 4,6-dimethyl-5-{2-methyl-4-[(3-methyl[1,2]oxazolo[4,5-c]pyridin-4-yl)oxy]phenyl}pyridazin-3(2H)-one, trifluoroacetic acid salt] was tested. Which Ki did it give?
A: Its Ki is 326 nM.

Q: With `Cc1cc(Oc2nccc3[nH]cnc23)ccc1-c1c(C)ncnc1C#N` [Example 12, 5-[4-(1H-imidazo[4,5-c]pyridin-4-yloxy)-2-methylphenyl]-6-methylpyrimidine-4-carbonitrile] as the compound, how does the Ki read?
A: Its Ki is 367 nM.

Q: How did the Ki turn out when `CCc1c(-c2ccc(Oc3ncnc4occc34)cc2)n(C)c(=O)[nH]c1=O` [Example 18, 5-ethyl-6-[4-(furo[2,3-d]pyrimidin-4-yloxy)phenyl]-1-methylpyrimidine-2,4(1H,3H)-dione] was run?
A: Its Ki is 274 nM.

Q: With `Cc1cc(Oc2ncnc3occc23)ccc1-c1c(C)n[nH]c(=O)c1C` (single isomer, unassigned) [Example 7, (+)-5-[4-(furo[2,3-d]pyrimidin-4-yloxy)-2-methylphenyl]-4,6-dimethylpyridazin-3(2H)-one] as the compound, how does the Ki read?
A: The Ki was 30.7 nM.

Q: For `Cc1cc(Oc2ncnc3occc23)ccc1-c1cn[nH]c(=O)c1C` [Example 14, 5-[4-(furo[2,3-d]pyrimidin-4-yloxy)-2-methylphenyl]-4-methylpyridazin-3(2H)-one], which Ki is on record?
A: Its Ki is 372 nM.

Q: Which Ki does the source give for `Cc1cc(Oc2ncnc3occc23)ccc1-c1c(C)ncc(=O)n1C` (single isomer, unassigned) [Example 5, (+)-6-[4-(furo[2,3-d]pyrimidin-4-yloxy)-2-methylphenyl]-1,5-dimethylpyrazin-2(1H)-one] here?
A: Its Ki is 400 nM.

Q: `Cc1cc(Oc2nccc3onc(C)c23)ccc1-c1c(C)ncc(=O)n1C` [Example 17, 1,5-dimethyl-6-{2-methyl-4-[(3-methyl[1,2]oxazolo[4,5-c]pyridin-4-yl)oxy]phenyl}pyrazin-2(1H)-one, trifluoroacetic acid salt] was tested. Which Ki did it give?
A: Its Ki is 1730 nM.

Q: `Cc1cc(Oc2ncnc3occc23)ccc1-c1c(C)ncc(=O)n1C` (single isomer, unassigned) [Example 4, (−)-6-[4-(furo[2,3-d]pyrimidin-4-yloxy)-2-methylphenyl]-1,5-dimethylpyrazin-2(1H)-one] was tested. Which Ki did it give?
A: Its Ki is 127 nM.

Q: How did the Ki turn out when `CCc1c(-c2ccc(Oc3ncnc4occc34)cc2)n(C2CC2)c(=O)[nH]c1=O` [Example 22, 1-cyclopropyl-5-ethyl-6-[4-(furo[2,3-d]pyrimidin-4-yloxy)phenyl]pyrimidine-2,4(1H,3H)-dione] was run?
A: Its Ki is 142 nM.
